Entries after “also recorded” stand apart in the source; their conditions may differ.
Key:
ABAP1 = ABAP1 (Hordeum vulgare, UniProt Q9LLX3); assay: ABA binding assay with purified recombinant ABAP1; design: species or system barley; settings: analogs/precursors added at the same time as 3H+-ABA at different concentrations (20-5000)
Procedure: Other additions or changes to the incubation system are discussed in the figure legends. All binding assays were carried out at a final volume of 150 μL at 4° C. for 1 hour. The mixture was then rapidly filtered through a nitrocellulose membrane, washed with 5 mL, of cold 0.5× binding buffer by rapid filtration, dried in air and counted in a scintillation counter (Wallac 1414 WinSpectral v1.40). […] The DCC binding mixture was maintained for 15 minutes on ice before centrifugation to precipitate DCC. The resulted supernatant was then counted in a scintillation counter to determine the binding activity. […] Heat denatured ABAP1 protein was used to determine the protein nature of the ABAP1 and BSA was used as a control. All binding studies were carried out using three different protein purifications with triplicate assays for each purification. […] Binding was represented as the number of moles of ^3H^+-ABA per mole of ABAP1 protein.

em promoter = em promoter driven GUS expression in bombarded barley aleurone layers; assay type: cell-based; settings: in the presence of the added substance
Excerpt: The studies examined the effector and reporter constructs, at a 1:1 ratio, introduced to barley aleurone layers by gold particle bombardment. The bombardment consisted of two trials: the first trial was a bombardment of em promoter only; the second trial was a bombardment of em promoters treated with ABAP1.

α-amylase activity = α-amylase activity in bombarded barley aleurones; assay type: cell-based; settings: em and ABAP1 bombarded aleurones
Procedure: A similar experiment was conducted with α-amylase activity to confirm if ABAP1 is involved in another signal transduction pathway. α-amylase activity was measured after ABA, PBI51 and GA were added to the em and ADAPT bombarded barley aleurones.

FCA protein = molecular target: T1, FCA protein (Arabidopsis thaliana, UniProt O04425); assay: ABA binding assay with purified recombinant FCA; design: Kd; other: analog added in higher concentrations than 3H+-ABA (20-5000 nM); other: Scatchard analysis, r^2=0.88; other: in presence of 5 μM unlabelled (+)-ABA; pH range of maximum; fused on or other part: GST fused on for purification; settings: analog added in higher concentrations than 3H+-ABA (20-5000 nM)
T1 sequence (O04425 1-747 isoform O04425-1): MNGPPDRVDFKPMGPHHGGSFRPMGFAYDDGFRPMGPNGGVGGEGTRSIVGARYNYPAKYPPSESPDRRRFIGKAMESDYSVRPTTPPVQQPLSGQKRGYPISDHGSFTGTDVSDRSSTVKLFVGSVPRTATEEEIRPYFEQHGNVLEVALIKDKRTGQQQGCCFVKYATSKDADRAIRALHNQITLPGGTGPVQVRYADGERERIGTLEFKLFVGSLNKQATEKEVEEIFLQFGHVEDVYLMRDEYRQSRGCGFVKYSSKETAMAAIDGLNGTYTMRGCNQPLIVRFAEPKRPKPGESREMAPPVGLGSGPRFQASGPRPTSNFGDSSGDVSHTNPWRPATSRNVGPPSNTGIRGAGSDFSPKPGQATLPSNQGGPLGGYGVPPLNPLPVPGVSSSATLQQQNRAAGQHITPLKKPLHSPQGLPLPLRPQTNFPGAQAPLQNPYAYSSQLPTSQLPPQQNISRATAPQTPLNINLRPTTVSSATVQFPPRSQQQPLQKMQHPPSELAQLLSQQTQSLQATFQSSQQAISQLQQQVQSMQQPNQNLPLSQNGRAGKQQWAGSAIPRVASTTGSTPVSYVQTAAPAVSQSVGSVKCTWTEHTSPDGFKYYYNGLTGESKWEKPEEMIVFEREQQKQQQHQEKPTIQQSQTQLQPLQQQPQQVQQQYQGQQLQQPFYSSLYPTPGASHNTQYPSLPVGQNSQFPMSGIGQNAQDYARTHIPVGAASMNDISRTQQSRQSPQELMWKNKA
Procedure: […] The mixture was then rapidly filtered through a nitrocellulose membrane, washed with 0.5× binding buffer, air dried and counted in a scintillation counter (Wallac 1414 WinSpectral v1.40). Heat denatured FCA protein was used to used determine the protein nature of the FCA and BSA was used as a control. All binding studies were carried out using three different GST affinity chromatography protein purifications with triplicate assays for each purification. […] Specific binding was calculated by taking the difference for assays with only ^3H^+-ABA (total binding) and assays that also contained 5 μM (±)-ABA added at the same time as ^3H^+-ABA (non-specific binding). Binding was represented as the number of moles of ^3H^+-ABA per mole of FCA protein.

FCA/FY interaction = assay: GST pull-down of FCA/FY interaction in the presence of ABA; assay type: binding, Arabidopsis; settings: FCA pre-bound with ABA for 30 min
Procedure: All in vitro translation and GST pull-down assays were carried out as described by supplier's protocols (Promega, Madison, Wis.) with modifications^S and as follows. For GST in vitro pull-down assays, 15 μL GST affinity resin was incubated with 250 μL FCA clear lysate, pelleted and the complex blocked and washed with IP buffer as described^S. For the determination of the amount of FCA bound to GST resin, the pellet was resuspended with 200 μL of 15 mM GSH to elute FCA and the supernatant was recovered by centrifugation. FY protein to be tested for interaction with the GST-FCA fusion protein was synthesized from a plasmid template and labeled with [^35S]-methionine using the T7 TNT coupled Transcription/Translation System (Promega). Twenty μL of FY labeled protein and 180 μL of interaction buffer (12.5 mM Tris-HCl, pH 7.3 containing 5 mM KCl, 1 mM MgCl2, and 100 mM NaCl) were used to resuspend the GST:FCA after the final wash. The protein binding/interaction reaction was carried out for 90 minutes at 4° C. with continuous gentle mixing. The newly formed complex was then washed three times with 500 μL of IP wash buffer. After the final wash, the complex was resuspended, first with 10 μL of 1 5 mM GSH to facilitate the dissociation of interacted proteins from GST resin and then 10 μL of 2×SDS-PAGE sample buffer was added to the mixture and boiled for 5 minutes for complete elution of the proteins from the agarose beads. The beads were pelleted by centrifugation and supernatant was loaded on a 12% SDS-PAGE gel. The gel was dried and exposed to Kodak X-ray film for 18 hours at −70° C. and film was developed for the detection of labelled proteins.
FCA was bound with […] for 30 minutes at which time the FCA/FY translated product was added to the incubation mixture. The interaction between FCA/FY was carried out in the presence of either (−)- or (+)-ABA in binding buffer as described above. Released proteins were separated on SDS-PAGE and labelled proteins were detected as described above. FCA-WW-FY was used as a control.

[1] = ABA binding of ABAP1 trypsin fragments; design: species or system barley; settings: for ABA binding molar ratio / affinity: trypsin fragments compared with full-length ABAP1
Excerpt: It is to be noted that the nucleotide fragment sequence SEQ ID NO: 12 corresponds to nucleotides 350 through 951 of the nucleotide sequence listing set forth in SEQ ID NO: 9, and that the amino acid sequence SEQ ID NO: 11 encoded by the nucleotide fragment sequence SEQ ID NO: 12 corresponds to amino acids 112 though 309 of the ABAP1 protein (SEQ. ID NO: 10). Mutation analysis can be used to determine the specific residues involved in […] binding. Those skilled in these arts will understand that the ABA-binding capacity within a recipient plant tissue or seed can be modulated by constructing a nucleotide molecule by first fusing the T-20 coding sequence (SEQ ID NO: 12) with a suitable regulatory nucleotide sequence selected for over-expression or for under-expression of the T-20 coding sequence, then stably introducing the T-20 nucleotide molecule into the genome of a recipient cell from a seed-producing plant, culturing the recipient cell into a functional whole plant and then further propagating the plant to produce mature recipient seeds. A suitable forward […] for the T-20 coding sequence is set forth in the sequence listing identified as SEQ ID NO: 15. A suitable reverse primer for the T-20 coding sequence is set forth in the sequence listing identified as SEQ ID NO: 16.

Sequence of ABAP1 (Q9LLX3 entry or part of it): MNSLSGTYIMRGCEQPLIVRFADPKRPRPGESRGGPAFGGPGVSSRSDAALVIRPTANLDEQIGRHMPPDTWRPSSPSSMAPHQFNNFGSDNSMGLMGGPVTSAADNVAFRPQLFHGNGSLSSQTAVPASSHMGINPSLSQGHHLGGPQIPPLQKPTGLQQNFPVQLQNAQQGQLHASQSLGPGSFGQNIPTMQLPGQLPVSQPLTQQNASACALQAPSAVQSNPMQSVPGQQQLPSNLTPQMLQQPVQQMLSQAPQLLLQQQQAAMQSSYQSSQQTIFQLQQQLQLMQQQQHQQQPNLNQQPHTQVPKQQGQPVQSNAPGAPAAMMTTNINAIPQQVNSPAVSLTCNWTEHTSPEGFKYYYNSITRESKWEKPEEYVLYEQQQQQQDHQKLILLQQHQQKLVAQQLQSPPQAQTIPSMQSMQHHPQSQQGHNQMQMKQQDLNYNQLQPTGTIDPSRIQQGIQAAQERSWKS

Molecule: CC1=CC(=O)CC(C)(C)[C@@]1(O)/C=C/C(C)=C\CO [(+) ABA-alcohol]
- displacement of 3H+-ABA bound to ABAP1 (competition) (ABAP1): able to displace
- displacement of 3H+-ABA bound to ABAP1 (competition) (ABAP1; listed as ABA alcohol): did competitively inhibit binding of ABA to ABAP1 to some extent

Molecule: CC1=CC(=O)CC(C)(C)[C@@]1(O)/C=C/C(C)=C\C=O [(+) ABA-aldehyde]
- displacement of 3H+-ABA bound to ABAP1 (competition) (ABAP1): able to displace
- displacement of 3H+-ABA bound to ABAP1 (competition) (ABAP1; listed as ABA aldehyde): did competitively inhibit binding of ABA to ABAP1 to some extent

Molecule: CC1=CC(=O)CC(C)(C)[C@@]1(O)/C=C/C(C)=C\C(=O)O[C@@H]1O[C@H](CO)[C@@H](O)[C@H](O)[C@H]1O [ABA-GE, (+) abscisic acid-glucose ester]
- displacement of 3H+-ABA bound to ABAP1 (competition) (ABAP1): incapability

Molecule: CC(=C/C(=O)O)/C=C/[C@]1(O)[C@@]2(C)CO[C@]1(C)C[C@@H](O)C2 [DPA, dihydrophaseic acid]
- displacement of 3H+-ABA bound to ABAP1 (competition) (ABAP1): incapability

Molecule: C=C1C[C@]23C[C@@]1(O)CC[C@H]2[C@@]12C=C[C@H](O)[C@@](C)(C(=O)O1)[C@H]2[C@@H]3C(=O)O [GA, gibberellic acid]
- activation of the em promoter by ABAP1 (em promoter): reduced
- α-amylase activity (α-amylase activity): did not affect any reduction

Molecule: CC(=C/C(=O)O)/C=C/[C@]1(O)[C@@]2(C)CO[C@]1(C)CC(=O)C2 [PA, phaseic acid]
- displacement of 3H+-ABA bound to ABAP1 (competition) (ABAP1): incapability

Molecule: C/C(C#C[C@]1(O)[C@H](C)CC(=O)CC1(C)C)=C/CO [PBI51]
- activation of the em promoter by ABAP1 (em promoter): reduced
- α-amylase activity (α-amylase activity): decreased

Molecule: CC(C=CC1(O)C(C)=CC(=O)CC1(C)C)=CC(=O)O (stereo not drawn) [trans-ABA]
- displacement of 3H+-ABA binding to FCA (FCA protein): Virtually no or very little displacement
- displacement of 3H+-ABA bound to ABAP1 (competition) (ABAP1): incapability; also recorded: neither (−)-ABA nor trans-ABA compete

Molecule: (−)-ABA
- displacement of 3H+-ABA binding to FCA (FCA protein): Virtually no or very little displacement
- inhibition of FCA/FY interaction (FCA/FY interaction): did not significantly inhibit
- displacement of 3H+-ABA bound to ABAP1 (competition) (ABAP1): neither (−)-ABA nor trans-ABA compete
- displacement of 3H+-ABA bound to ABAP1 (competition) (ABAP1; listed as (−) ABA): incapability

B1: 20 kDa fragment: trypsin fragment of ABAP1 with HR1 and HR2 regions, SEQ ID NO: 11 (protein)
chain: PQLFHGNGSLSSQTAVPASSHMGINPSLSQGHHLGGPQIPPLQKPTGLQQNFPVQLQNAQQGQLHASQSLGPGSFGQNIPTMQLPGQLPVSQPLTQQNASACALQAPSAVQSNPMQSVPGQQQLPSNLTPQMLQQPVQQMLSQAPQLLLQQQQAAMQSSYQSSQQTIFQLQQQLQLMQQQQHQQQPNLNQQPHTQVPK
modifications: Hordeum, vulgare subsp. vulgare
- ABA binding molar ratio / affinity [1]: about the same molar ratio

B2: 10 kDa fragment: trypsin fragment of ABAP1 containing HR2 only, SEQ ID NO: 13 (protein)
chain: SAVQSNPMQSVPGQQQLPSNLTPQMLQQPVQQMLSQAPQLLLQQQQAAMQSSYQSSQQTIFQLQQQLQLMQQQQHQQQPNLNQQPHTQVPK
modifications: Hordeum, vulgare subsp. vulgare
- ABA-binding affinity relative to 20 kDa fragment and full-length protein [1]: less than 50%
- ABA binding molar ratio / affinity [1]: slight binding affinity

From US20080235828A1 (University of Manitoba, priority 2004, published 2008)
